Assay results as given in publication PMC10126150 (2023).

Assays:
Experiment in all cases: Cy3/quencher fluorescence plate reader
Conditions in all cases: 120 mM Na+, 5 mM K+, 1 mM Mg2+, 1 mM Ca2+; 20 mM Tris-HCl, 25 °C; affinity similar to glucose
[1] = test system: glu-2 ADS construct (DNA, aptamer, boronic acid-modified U (Z, T in the source) at 5,7,8,12,15,19,24,26 of strand 1 (MS of Bio-NNGmin: seven of eight coupled)) CCCGTGTTAGATAGTAAGTGCAATCTCGGCTTTCTGTCTCTTATACACATCTGACGCTGCCGACGA/TCGTCGGCAGCGTCAGATGTGTATAAGAGACAGTTTTTTTTTTTTTTTTTTTTTTTTTCAGGACAGGCTC
[2] = test system: glu-3 ADS construct (DNA, aptamer, boronic acid-modified U (Z, T in the source) at 5,7,8,12,15,19,24,26 of strand 1 (MS of Bio-NNGmin: seven of eight coupled)) CCCGTGTTAGATAGTAAGTGCAATCTCGGCTTTCTGTCTCTTATACACATCTGACGCTGCCGACGA/TCGTCGGCAGCGTCAGATGTGTATAAGAGACAGTTTTTTTTTTTTTTTTTTTTTTTTTTACCAGGAGCTC
[3] = test system: glu-4 ADS construct (DNA, aptamer, boronic acid-modified U (Z, T in the source) at 5,7,8,12,15,19,24,26 of strand 1 (MS of Bio-NNGmin: seven of eight coupled)) CCCGTGTTAGATAGTAAGTGCAATCTCGGCTTTCTGTCTCTTATACACATCTGACGCTGCCGACGA/TCGTCGGCAGCGTCAGATGTGTATAAGAGACAGTTTTTTTTTTTTTTTTTTTTTTTTTACCAGGAGCTTC
[4] = test system: glu-1 ADS construct (DNA, aptamer, boronic acid-modified U (Z, T in the source) at 5,7,8,12,15,19,24,26 of strand 1 (MS of Bio-NNGmin: seven of eight coupled)) CCCGTGTTAGATAGTAAGTGCAATCTCGGCTTTCTGTCTCTTATACACATCTGACGCTGCCGACGA/TCGTCGGCAGCGTCAGATGTGTATAAGAGACAGTTTTTTTTTTTTTTTTTTTTTTTTTTAGGGCAGGCTC

Measured: binding

OCC1(O)OC[C@@H](O)[C@@H](O)[C@@H]1O (stereo partly shown)
yes: all assays above
